Reference: ChEMBL document CHEMBL1201862, “PubChem BioAssay data set” (2004)
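Assay format: 96-well plates, 48-hour exposure. The concentration for 50% growth inhibition is given as GI50.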 The source made the active and inactive calls. No stated cut-off is given here; in the data, active = GI50 up to about 1.1 µM and inactive = higher.

Assays:
Assay in all cases: inhibition of tumour cell growth, NCI panel, 48 h
SK-MEL-28 = test system: SK-MEL-28
KM12 = test system: KM12
RXF 393 = test system: RXF 393
SNB-75 = test system: SNB-75
HOP-18 = test system: HOP-18
TK-10 = test system: TK-10
EKVX = test system: EKVX
SK-MEL-2 = test system: SK-MEL-2
HCC 2998 = test system: HCC 2998
SK-OV-3 = test system: SK-OV-3
COLO 205 = test system: COLO 205
ACHN = test system: ACHN
OVCAR-3 = test system: OVCAR-3
A498 = test system: A498
SF-268 = test system: SF-268
SF-539 = test system: SF-539
UO-31 = test system: UO-31
SF-295 = test system: SF-295
NCI/ADR-RES = test system: NCI/ADR-RES
NCI-H23 = test system: NCI-H23
HL-60 = test system: HL-60
IGROV-1 = test system: IGROV-1
SN12C = test system: SN12C
NCI-H522 = test system: NCI-H522
HCT-15 = test system: HCT-15
MDA-N = test system: MDA-N
PC-3 = test system: PC-3
CCRF-CEM = test system: CCRF-CEM
U-251 = test system: U-251
CAKI-1 = test system: CAKI-1
SK-MEL-5 = test system: SK-MEL-5
OVCAR-5 = test system: OVCAR-5
MDA-MB-435 = test system: MDA-MB-435
HT-29 = test system: HT-29
T47D = test system: T47D
MOLT-4 = test system: MOLT-4
MDA-MB-231 = test system: MDA-MB-231
M14 = test system: M14
OVCAR-8 = test system: OVCAR-8
K562 = test system: K562
MCF7 = test system: MCF7
HOP-62 = test system: HOP-62
Hs-578T = test system: Hs-578T
A549 = test system: A549
DU-145 = test system: DU-145
Malme-3M = test system: Malme-3M
NCI-H460 = test system: NCI-H460
786-0 = test system: 786-0
RPMI-8226 = test system: RPMI-8226
HOP-92 = test system: HOP-92
UACC-62 = test system: UACC-62
NCI-H226 = test system: NCI-H226
SW-620 = test system: SW-620
SR = test system: SR
SNB-19 = test system: SNB-19
HCT-116 = test system: HCT-116
LOX IMVI = test system: LOX IMVI
BT-549 = test system: BT-549
UACC-257 = test system: UACC-257
OVCAR-4 = test system: OVCAR-4
SNB-78 = test system: SNB-78
DLD-1 = test system: DLD-1
LXFL 529 = test system: LXFL 529
KM-20L2 = test system: KM-20L2
M19-MEL = test system: M19-MEL
DMS-114 = test system: DMS-114

For `COc1cc(C2c3cc4c(cc3[C@@H](NCCCN3CCCC3=O)C3COC(=O)[C@H]23)OCO4)cc(OC)c1O` (stereo partly specified), the GI50 (SK-MEL-28) was 15.4 µM (inactive), the GI50 (KM12) was 21 µM (inactive) and the GI50 (RXF 393) was 6.84 µM (inactive). The GI50 (SNB-75) was 1.67 µM (inactive), the GI50 (HOP-18) was 28.7 µM (inactive) and the GI50 (TK-10) was 30.3 µM (inactive). For the same compound, the GI50 (EKVX) was > 100 µM (inactive), the GI50 (SK-MEL-2) was 36.2 µM (inactive) and the GI50 (HCC 2998) was 19.1 µM (inactive). The GI50 (SK-OV-3) was 4.29 µM (inactive), the GI50 (COLO 205) was 7.76 µM (inactive) and the GI50 (ACHN) was 3.41 µM (inactive). For the same compound, the GI50 (OVCAR-3) was 45.9 µM (inactive).

With `CCCCCC/C=C\CCCCCCCCCC1=CC(=O)C=C(OC)C1=O` [IRISQUINONE A] the GI50 (A498) was 5.82 µM (inactive), the GI50 (SF-268) was 5.93 µM (inactive) and the GI50 (SF-539) was 2.05 µM (inactive). The GI50 (UO-31) was 4.57 µM (inactive), the GI50 (SF-295) was 3.6 µM (inactive) and the GI50 (NCI/ADR-RES) was 3.8 µM (inactive). For the same compound, the GI50 (NCI-H23) was 3.37 µM (inactive), the GI50 (SK-MEL-28) was 11.5 µM (inactive) and the GI50 (HL-60) was 1.88 µM (inactive). For the same compound, the GI50 (IGROV-1) was 2.23 µM (inactive), the GI50 (SN12C) was 3.03 µM (inactive) and the GI50 (NCI-H522) was 2 µM (inactive). The GI50 (HCT-15) was 2.1 µM, the GI50 (KM12) was 3.75 µM (inactive) and the GI50 (MDA-N) was 6.5 µM (inactive). The GI50 (PC-3) was 1.81 µM (inactive), the GI50 (CCRF-CEM) was 1.57 µM (inactive) and the GI50 (RXF 393) was 3.01 µM (inactive). The GI50 (U-251) was 0.713 µM (active), the GI50 (SNB-75) was 2.43 µM (inactive) and the GI50 (CAKI-1) was 3.48 µM (inactive). For the same compound, the GI50 (SK-MEL-5) was 2.54 µM (inactive), the GI50 (OVCAR-5) was 5.6 µM (inactive) and the GI50 (MDA-MB-435) was 3.81 µM (inactive). For the same compound, the GI50 (HT-29) was 3.19 µM (inactive), the GI50 (T47D) was 2.23 µM (inactive) and the GI50 (TK-10) was 6.05 µM (inactive). The GI50 (EKVX) was 3.57 µM (inactive), the GI50 (MOLT-4) was 3.79 µM (inactive) and the GI50 (MDA-MB-231) was 4.36 µM (inactive). The GI50 (M14) was 4.19 µM (inactive), the GI50 (OVCAR-8) was 0.593 µM (active) and the GI50 (K562) was 0.753 µM (active). For the same compound, the GI50 (SK-MEL-2) was 4.34 µM (inactive), the GI50 (MCF7) was 4.46 µM (inactive) and the GI50 (HCC 2998) was 8.24 µM (inactive). For the same compound, the GI50 (SK-OV-3) was 4.36 µM (inactive), the GI50 (HOP-62) was 3.48 µM (inactive) and the GI50 (Hs-578T) was 7.36 µM (inactive). The GI50 (A549) was 4.06 µM (inactive), the GI50 (DU-145) was 5.62 µM (inactive) and the GI50 (Malme-3M) was 12.3 µM (inactive). The GI50 (COLO 205) was 1.63 µM (inactive), the GI50 (NCI-H460) was 2.72 µM (inactive) and the GI50 (786-0) was 4.68 µM (inactive). The GI50 (RPMI-8226) was 2.21 µM (inactive), the GI50 (HOP-92) was 2.52 µM (inactive) and the GI50 (UACC-62) was 4.05 µM (inactive). For the same compound, the GI50 (NCI-H226) was 2.52 µM (inactive), the GI50 (SW-620) was 4.6 µM (inactive) and the GI50 (SR) was 2.72 µM (inactive). For the same compound, the GI50 (SNB-19) was 2.89 µM (inactive), the GI50 (HCT-116) was 3.43 µM (inactive) and the GI50 (LOX IMVI) was 4.06 µM (inactive). For the same compound, the GI50 (BT-549) was 2.16 µM (inactive), the GI50 (UACC-257) was 3.28 µM (inactive) and the GI50 (OVCAR-4) was 2.05 µM (inactive). The GI50 (ACHN) was 3.18 µM (inactive) and the GI50 (OVCAR-3) was 3.98 µM (inactive).

In the case of `COc1cccc(C2CC(C)=Nc3c(ccc4c3C(=O)c3ccccc3C4=O)N2)c1O` (stereo unspecified), the GI50 (A498) was > 100 µM (inactive), the GI50 (UO-31) was 33 µM (inactive) and the GI50 (NCI-H23) was > 100 µM (inactive). The GI50 (HL-60) was 5.41 µM (inactive), the GI50 (IGROV-1) was > 100 µM (inactive) and the GI50 (SN12C) was > 100 µM (inactive). For the same compound, the GI50 (HCT-15) was 26.9 µM, the GI50 (KM12) was 3.59 µM (inactive) and the GI50 (SNB-78) was > 100 µM (inactive). For the same compound, the GI50 (DLD-1) was 15 µM (inactive), the GI50 (U-251) was 3.78 µM (inactive) and the GI50 (SNB-75) was > 100 µM (inactive). The GI50 (LXFL 529) was > 100 µM (inactive), the GI50 (OVCAR-5) was > 100 µM (inactive) and the GI50 (HT-29) was > 100 µM (inactive). The GI50 (KM-20L2) was > 100 µM (inactive), the GI50 (M19-MEL) was 9.62 µM (inactive) and the GI50 (EKVX) was > 100 µM (inactive). The GI50 (M14) was 9.2 µM (inactive), the GI50 (OVCAR-8) was 4.94 µM (inactive) and the GI50 (K562) was > 100 µM (inactive). For the same compound, the GI50 (HCC 2998) was > 100 µM (inactive), the GI50 (DMS-114) was > 100 µM (inactive) and the GI50 (HOP-62) was 3.24 µM (inactive). For the same compound, the GI50 (A549) was > 100 µM (inactive), the GI50 (Malme-3M) was > 100 µM (inactive) and the GI50 (COLO 205) was > 100 µM (inactive). The GI50 (NCI-H460) was 7.52 µM (inactive), the GI50 (786-0) was > 100 µM (inactive) and the GI50 (RPMI-8226) was 79.3 µM (inactive). The GI50 (HOP-92) was > 100 µM (inactive), the GI50 (UACC-62) was > 100 µM (inactive) and the GI50 (NCI-H226) was 33.6 µM (inactive). The GI50 (SW-620) was 20.5 µM (inactive), the GI50 (SNB-19) was > 100 µM (inactive) and the GI50 (HCT-116) was > 100 µM (inactive). For the same compound, the GI50 (UACC-257) was 3 µM (inactive), the GI50 (ACHN) was 9.46 µM (inactive) and the GI50 (OVCAR-3) was 9.71 µM (inactive).
